Measurements taken from patent US20070213403A1, “TAMOXIFEN RESPONSE IN PRE-AND POST[…] CANCER PATIENTS” (priority 2004, published 2007).

Tests used:
[1] = test system: premenopausal patients with stage II invasive breast cancer; assay: Randomised trial of two years of adjuvant tamoxifen vs control in premenopausal patients; type: in vivo, human
Description: Premenopausal patients or patients under 50 years with stage II (pT2 N0 M0, pT1 N1 M0 and pT2, N1 M0) invasive breast cancer were enrolled in a clinical trial between 1986 -1991 and randomized to control (n=288) or two years of tamoxifen (n=276). All patients were radically operated by modified radical mastectomy or breast conserving surgery with axillary lymph node dissection (level one and two). After breast conserving surgery, radiotherapy (50 Gy) was given to the breast and in patients with axillary lymph node metastases locoregional radiotherapy was delivered. Patients were included irrespective of hormone receptor status. Randomization was performed by the Regional Oncologic Centre and oral informed consent registered for all patients. The study was approved by the ethical committee at Lund and Linkoping Universities.
The patients were followed until 5 years with annual mammogram and physical examination and then within the national program by screening mammogram every 18th month.The median duration of follow-up for patients without breast cancer event was 13.9 years (95% Cl: 13.6-14.3). The median follow-up time was the same in the two treatment arms. • 2. Postmenopausal Patients
(§1) 3-4 um sections of the paraffin embedded tissue arrays were dried, deparaffinized, rehydrated and microwave treated for 5+5 min in a citrate buffer (pH 6.0) before being processed in an automatic immunohistochemistry staining machine according to standard procedures (TechMate500, Dako, Denmark) using a polyclonal VEGF (A-20) antibody diluted 1:400 recognizing VEGF 165, 189 and 121 (Santa Cruz, Calif., USA) and a monoclonal VEGFR2 antibody recognizing VEGFR2/KDR diluted 1:1000 (Santa Cruz, Calif., USA). Normal human kidneys were used as positive controls for VEGF-A and for VEGFR2, human aortic endothelium served as positive controls. VEGF-A was previously validated using an ELISA-based method (LR). The cytoplasmatic staining intensity was evaluated semi-quantitatively using a classification from 0-3, representing lack of staining (0), low staining intensity (1), intermediate staining intensity (2) and high staining intensity (3). Only invasive tumor cells were evaluated. In survival analyses, high staining intensity (grade 3) was compared with the other grades (0, 1, 2) for both VEGF-A and VEGFR2 in premenopausal patients. In postmenopausal patients lack of staining was compared with staining of any intensity.
ER and PR were determined by immunohistochemistry in a tissue microarray. For this purpose, the Ventana Benchmark system (Ventana Medical Systems Inc., AZ, USA) with prediluted antibodies (Anti-ER Clone 6F11 and Anti-PgR Clone 16) was used. In line with the clinically established cut-off used for hormone receptor assessment, tumors with more than 10% positively staining nuclei were considered positive. In addition, the fractions of positive nuclei were quantified. […]
(§2) For survival analyses all calculations were done according to the intention to treat rule. Recurrence-free survival (RFS) considered distant, local and regional metastasis as primary event as well as breast cancer death, whereas contralateral breast cancer was not included. The Kaplan-Meier method was used to estimate recurrence-free and breast cancer survival and the log-rank test to compare survival in different strata. Cox proportional hazards model was used for estimation of univariate hazard ratios (HRs) and multivariate analysis.

[2] = test system: postmenopausal patients with stage II invasive breast cancer; assay: Randomised trial of two years of tamoxifen (40 mg/day) vs control in postmenopausal patients; type: in vivo, human
Description: The patients included were enrolled in a multi-center clinical trial at Umea University Hospital, Sweden, during 1980-1987 (Trial II) included in the Oxford meta-analysis. The inclusion criteria were postmenopausal patients (>55 years) with stage II (pT1, pN1, pM0, pT2, pN0, pM0, pT2, […], pM0) invasive breast cancer. For patients older than 70 years, stage II and stage III breast cancer patients were included. Patients were operated with modified radical mastecomy. The hormone receptor level was not determined at time of randomization. Patients were randomized to control or tamoxifen treatment (40 mg/day) for two years by the Regional Oncologic Center and oral informed consent was registered on admission to the Oncological Clinic. The study was approved by the Ethical Committee at the Umea university 1980 as well as 2002 (modification regarding molecular markers used in tissue micro array). The median age was 66.5 years (55-75 years) at inclusion. The median follow-up time was 18 years (range 15-22 years) for surviving patients.
as §1
ER and PR were determined by immunohistochemistry in a tissue microarray. For this purpose, the Ventana Benchmark system (Ventana Medical Systems Inc., AZ, USA) with prediluted antibodies (Anti-ER Clone 6F11 and Anti-PgR Clone 16) was used. In line with the clinically established cut-off used for hormone receptor assessment, tumors with more than 10% positively staining nuclei were considered positive. In addition, the fractions of positive nuclei were quantified.
as §2

[3] = test system: hormone receptor positive breast cancer; conditions: adjuvant tamoxifen for five years; cited from earlier work
[4] = Cox model with VEGFR2 status and interaction-variable, ER positive patients
[5] = Cox model, ER positive patients
[6] = Cox multivariate model with VEGF-A status and interaction-variable, ER positive patients
[7] = Cox multivariate model, ER positive patients
[8] = ER positive patients, univariate
[9] = ER positive, HER2 low tumors, univariate

For `CC/C(=C(\c1ccccc1)c1ccc(OCCN(C)C)cc1)c1ccccc1` [tamoxifen], the “absolute risk reduction (recurrence)” value ([1]; 324 ER positive patients, two years of tamoxifen vs control) was 15%, the “HR, OS, Randomization Tam v control” value [1, 4] was 0.6 and the “HR, RFS, Randomization Tam v control” value [1, 4] was 0.6. The “HR, OS, interaction-variable tamoxifen treatment x VEGFR2 status” value [1, 5] was 5.2, the “HR, RFS, interaction-variable tamoxifen treatment x VEGFR2 status” value [1, 5] was 2.2 and the “HR, OS, Randomization Tam v control” value [1, 6] was 1.1. The “HR, RFS, Randomization Tam v control” value [1, 6] was 0.5, the “HR, OS, interaction-variable tamoxifen treatment x VEGF-A status” value [1, 7] was 0.5 and the “HR, RFS, interaction-variable tamoxifen treatment x VEGF-A status” value [1, 7] was 1.5. For the same molecule, the “HR, OS (tamoxifen vs control)” value ([1]; ER negative disease) was 0.9, the “HR, RFS (tamoxifen vs control)” value ([1]; ER negative disease) was 0.9 and the recurrence rate ([1]; ER positive patients, tamoxifen treated group) was 36%. The “HR, OS (tamoxifen vs control)” value [1, 8] was 0.8, the “HR, RFS (tamoxifen vs control)” value [1, 8] was 0.6 and the “HR, OS (tamoxifen vs control)” value [1, 9] was 0.8. The “HR, RFS (tamoxifen vs control)” value [1, 9] was 0.6, the “HR, OS (tamoxifen vs control)” value ([1]; ER positive, HER 2 overexpressing tumor, univariate) was 0.9 and the “HR, RFS (tamoxifen vs control)” value ([1]; ER positive, HER2 overexpression, univariate) was 0.7. For the same molecule, the “HR, RFS (tamoxifen vs control)” value ([1]; ER positive, VEGF grade 3 tumors, univariate) was 0.8, the “HR, RFS (tamoxifen vs control)” value ([1]; ER positive, VEGF-A grade 0-2 tumors, univariate) was 0.6 and the “HR, OS (tamoxifen vs control)” value ([1]; ER positive, VEGFA grade 0-2 tumors, univariate) was 0.8. The “HR, OS (tamoxifen vs control)” value ([1]; ER positive, VEGFA grade 3 tumors, univariate) was 0.8, the “HR, OS (tamoxifen vs control)” value ([1]; ER positive, VEGFR2 3) was 3.4 and the “HR, RFS (tamoxifen vs control)” value ([1]; ER positive, VEGFR2 grade 0, 1 or 2 staining intensity) was 0.6. The “HR, OS (tamoxifen vs control)” value ([1]; ER positive, VEGFR2 grade 0-2) was 0.7, the “HR, RFS (tamoxifen vs control)” value ([1]; ER positive, intense expression of VEGFR2 (grade 3)) was 1.4 and the “HR of interaction-variable VEGFR2 status x tamoxifen treatment, OS” value ([2]; Cox model, 10 years, ER positive >90% stained nuclei) was 0.2. The “HR, OS at 10 years (tamoxifen vs control)” value ([2]; ER positive >90% stained nuclei, VEGF-A negative tumors) was 0.3, the “HR, OS at 10 years (tamoxifen vs control)” value ([2]; ER positive >90% stained nuclei, VEGF-A positive tumors) was 0.8 and the “HR, OS at 10 years (tamoxifen vs control)” value ([2]; ER positive >90% stained nuclei, VEGFR2 negative tumors) was 0.2. For the same molecule, the “HR, OS at 10 years (tamoxifen vs control)” value ([2]; ER positive >90% stained nuclei, VEGFR2 positive tumors) was 0.9, the “effect on overall survival of tamoxifen treatment” value ([2]; all patients irrespective of hormone receptor content) was “non-significant” and the “tamoxifen response (overall survival)” value ([2]; patients with >90% ER positive cells, 10 years) was “notable at 10-years, however not strictly significant”. For the same molecule, the reduction of death [3] was 28% and the reduction of recurrence [3] was 50%.
